Measured values published in PubChem BioAssay (NCI).
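In this assay, cells in 96-well plates receive the compound at five concentrations for 48 hours. Endpoints are linearly interpolated between the surrounding concentrations. GI50 is the concentration that inhibits growth by half. TGI: total growth inhibition.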

Experiments:
Assay in all cases: NCI tumour cell line growth inhibition, 48 h
[1] = test system: 786-0 renal
[2] = test system: A498 renal
[3] = test system: A549 NSCLC
[4] = test system: ACHN renal
[5] = test system: BT-549 breast
[6] = test system: CAKI-1 renal
[7] = test system: CCRF-CEM leukemia
[8] = test system: COLO 205 colon
[9] = test system: DU-145 prostate
[10] = test system: EKVX NSCLC
[11] = test system: HCC-2998 colon
[12] = test system: HCT-116 colon
[13] = test system: HCT-15 colon
[14] = test system: HL-60(TB) leukemia
[15] = test system: HOP-62 NSCLC
[16] = test system: HOP-92 NSCLC
[17] = test system: HS 578T breast
[18] = test system: HT29 colon
[19] = test system: IGROV1 ovarian
[20] = test system: K-562 leukemia
[21] = test system: KM12 colon
[22] = test system: LOX IMVI melanoma
[23] = test system: M14 melanoma
[24] = test system: MALME-3M melanoma
[25] = test system: MCF7 breast
[26] = test system: MDA-MB-231 breast
[27] = test system: MDA-MB-435
[28] = test system: MOLT-4 leukemia
[29] = test system: NCI-H226 lung
[30] = test system: NCI-H23 lung
[31] = test system: NCI-H460 lung
[32] = test system: NCI-H522 lung
[33] = test system: NCI/ADR-RES ovarian
[34] = test system: OVCAR-3 ovarian
[35] = test system: OVCAR-4 ovarian
[36] = test system: OVCAR-5 ovarian
[37] = test system: OVCAR-8 ovarian
[38] = test system: PC-3 prostate
[39] = test system: RPMI-8226 leukemia
[40] = test system: RXF 393 renal
[41] = test system: SF-268 CNS
[42] = test system: SF-295 CNS
[43] = test system: SF-539 CNS
[44] = test system: SK-MEL-2 melanoma
[45] = test system: SK-MEL-28 melanoma
[46] = test system: SK-MEL-5 melanoma
[47] = test system: SK-OV-3 ovarian
[48] = test system: SN12C renal
[49] = test system: SNB-19 CNS
[50] = test system: SNB-75 CNS
[51] = test system: SR leukemia
[52] = test system: SW-620 colon
[53] = test system: T-47D breast
[54] = test system: TK-10 renal
[55] = test system: U251 CNS
[56] = test system: UACC-257 melanoma
[57] = test system: UACC-62 melanoma

SMILES: COc1ccc2c(c1)C(=O)c1c-2c(=O)n(CCCCCCC(=O)NO)c2ccccc12
- GI50 [1]: 1.32 µM
- TGI [1]: 11.5 µM
- GI50 [2]: 0.245 µM
- TGI [2]: 0.985 µM
- GI50 [3]: 0.416 µM
- TGI [3]: 3.19 µM
- GI50 [4]: 0.226 µM
- TGI [4]: 1.7 µM
- GI50 [5]: 2.71 µM
- TGI [5]: 42.6 µM
- GI50 [6]: 0.72 µM
- TGI [6]: 3.72 µM
- GI50 [7]: 0.138 µM
- TGI [7]: > 100 µM
- GI50 [8]: 0.304 µM
- TGI [8]: 1.71 µM
- GI50 [9]: 0.428 µM
- TGI [9]: 10.8 µM
- GI50 [10]: 0.7 µM
- TGI [10]: > 100 µM
- GI50 [11]: 0.398 µM
- TGI [11]: 1.84 µM
- GI50 [12]: 0.0664 µM
- TGI [12]: 1.15 µM
- GI50 [13]: 0.602 µM
- TGI [13]: > 100 µM
- GI50 [14]: 0.325 µM
- TGI [14]: > 100 µM
- GI50 [15]: 0.0987 µM
- TGI [15]: 2.71 µM
- GI50 [16]: 0.197 µM
- TGI [16]: 1.24 µM
- GI50 [17]: 0.16 µM
- TGI [17]: 4.47 µM
- GI50 [18]: 0.282 µM
- TGI [18]: 2.75 µM
- GI50 [19]: 0.732 µM
- TGI [19]: 12.2 µM
- GI50 [20]: 0.26 µM
- TGI [20]: > 100 µM
- GI50 [21]: 0.358 µM
- GI50 [22]: 0.236 µM
- TGI [22]: 1.13 µM
- GI50 [23]: 0.407 µM
- TGI [23]: 13.9 µM
- GI50 [24]: 0.202 µM
- TGI [24]: 60.9 µM
- GI50 [25]: 0.226 µM
- TGI [25]: 10.2 µM
- GI50 [26]: 0.715 µM
- TGI [26]: 26 µM
- GI50 [27]: 0.197 µM
- TGI [27]: 2.29 µM
- GI50 [28]: 0.139 µM
- TGI [28]: > 100 µM
- GI50 [29]: 1.18 µM
- TGI [29]: > 100 µM
- GI50 [30]: 0.296 µM
- TGI [30]: 1.81 µM
- GI50 [31]: 0.269 µM
- TGI [31]: > 100 µM
- GI50 [32]: 0.0822 µM
- TGI [32]: 1.17 µM
- GI50 [33]: 0.0941 µM
- TGI [33]: 2.29 µM
- GI50 [34]: 0.292 µM
- TGI [34]: 2.11 µM
- GI50 [35]: 1.11 µM
- TGI [35]: 17.5 µM
- GI50 [36]: 0.527 µM
- TGI [36]: 12.3 µM
- GI50 [37]: 0.329 µM
- TGI [37]: 25.2 µM
- GI50 [38]: 0.491 µM
- TGI [38]: > 100 µM
- GI50 [39]: 0.259 µM
- TGI [39]: > 100 µM
- GI50 [40]: 0.224 µM
- TGI [40]: 1.77 µM
- GI50 [41]: 1.06 µM
- TGI [41]: 9.8 µM
- GI50 [42]: 0.733 µM
- TGI [42]: 4.85 µM
- GI50 [43]: 0.48 µM
- TGI [43]: 28.7 µM
- GI50 [44]: 1.23 µM
- TGI [44]: 5.9 µM
- GI50 [45]: 0.478 µM
- TGI [45]: 3.12 µM
- GI50 [46]: 0.184 µM
- TGI [46]: 1.08 µM
- GI50 [47]: 0.3 µM
- TGI [47]: 2.97 µM
- GI50 [48]: 1.36 µM
- TGI [48]: 88.2 µM
- GI50 [49]: 0.616 µM
- TGI [49]: 13.4 µM
- GI50 [50]: 0.093 µM
- TGI [50]: 13.8 µM
- GI50 [51]: 0.0999 µM
- TGI [51]: > 100 µM
- GI50 [52]: 0.13 µM
- TGI [52]: 0.695 µM
- GI50 [53]: 0.0948 µM
- TGI [53]: 0.526 µM
- GI50 [54]: 0.0743 µM
- TGI [54]: 1.68 µM
- GI50 [55]: 0.352 µM
- TGI [55]: 2.01 µM
- GI50 [56]: 0.223 µM
- TGI [56]: 2.31 µM
- GI50 [57]: 0.145 µM
- TGI [57]: 1.38 µM
